According to paper PMC8318231, “Rate-of-Kill (RoK) assays to triage large compound sets for Chagas disease drug discovery: Application to GSK Chagas Box” (PLoS Neglected Tropical Diseases, 2021):
Where two headings read alike, the source gives them in different places.

Legend:
[1] = test system: T. cruzi Tulahuen trypomastigotes; assay: T. cruzi trypomastigote assay (Cell Titer-Glo viability, ATP luminescence); type: cell-based, Trypanosoma cruzi; conditions: for Trypomastigotes pIC50 48 hours: 48 hours incubation; for Trypomastigotes pIC50 48 hours / Trypomastigotes pIC50 72 hours: pIC50 = -log10 IC50 in molar units; for Trypomastigotes pIC50 72 hours: 72 hours incubation; for activity in trypomastigotes assay (in words): 48 and 72 hours; for IC50: Trypanosoma cruzi, TULAHUEN
Summary of the method: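 Compounds were tested in dose response or once at a final 5 μM against 5 × 10^4 trypomastigotes per well (DMEM, 2% FBS), collected on days 5–8 from LLC-MK2 infected cultures. ATP luminescence via CellTiter-Glo reports live parasites; DMSO defines 0% and cell-free wells 100% effect.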

[2] = test system: T. cruzi intracellular amastigotes in H9c2 cells; assay: Rate-of-Kill (RoK) high-content imaging assay, amastigotes per cell (AM/CELL) and curve descriptors; type: cell-based, Trypanosoma cruzi; design: key to ME_24h / ME_48h / ME_72h: % reduction in parasite burden (cidal response); t50pct_MCC50 / t50pct_Cmax: unit not given here; conditions: for ME_24h: 24h; for ME_48h: 48h; for ME_72h: 72h; for tlag_Cmax / t50pct_Cmax / t50%_Cmax: at Cmax; for ME_24h (%): maximum effect at 24 h; for ME_24h (%) / ME_48h (%) / ME_72h (%): RoK assay; for ME_48h (%): maximum effect at 48 h; for ME_72h (%): maximum effect at 72 h; for ME 24h (maximum effect at 24 hours, intracellular amastigotes) / Emax: maximum percentage of parasite burden reduction reached by any concentration, 24 hours; for MCCE (Minimal Compound Concentration with Effect): lowest concentration that decreases AUC of AM/CELL versus time by at least 50% vs infected control; for MCC50 (Minimal Cidal Concentration 50%): lowest concentration that reduces 50% of the parasite load measured at zero time; for Emax: read-out: ME 24h (maximum effect at 24 hours, intracellular amastigotes)
Summary of the method: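 Readouts at each time point are amastigotes per cell and host nuclei count (cytotoxicity), from DRAQ5 high-content imaging. Infection: trypomastigotes on H9c2 at MOI 8 for 18 h. Dosing was 5 μM single point or 11 points, 1/3 steps from 50 μM. Effect scaled between 4 h infected and uninfected controls.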

[3] = 48 h, read-out: Trypomastigotes pIC50 48 hours (converted)
[4] = 72 h, read-out: Trypomastigotes pIC50 72 hours (converted)
[5] = trypomastigote assay, 72 h, figure 1B

Structure (SMILES)	Trypomastigotes pIC50 48 hours [1]	Trypomastigotes pIC50 72 hours [1]	ME_24h ([2]; figure 5)	ME_48h ([2]; figure 5)	ME_72h ([2]; figure 5)	MCCE ([2]; RoK curve descriptor)	AM/CELL NORM ([2]; Time 4, sheet figure 4 A)	tlag_Cmax [2]	t50pct_Cmax ([2]; figure 5)	tlag_Cmax ([2]; figure 5)	t50pct_MCC50 ([2]; at MCC50, figure 5)	tlag_MCC50 ([2]; at MCC50, figure 5)	MCCE ([2]; figure 5)	ME_24h (%) [2]	ME_48h (%) [2]	ME_72h (%) [2]	MCC50 ([2]; RoK curve descriptor)	t50%_MCC50 ([2]; at MCC50)	tlag_MCC50 ([2]; at MCC50)	MCC50 ([2]; figure 5, in µM)	other results
CC(CNS(=O)(=O)c1ccc(OC(F)F)cc1)c1ccc(NC(=O)c2ccncc2)cc1 (stereo not drawn) [TCMDC-143535]	4.6	4.4	-92.8433	-11.1799	45.5869	0.2 µM	3.544	24.0 h	72	24	72	72	0.2058	-92.8%	-11.2%	45.6%	–	–	–	–	AM/CELL NORM ([2]; Time 24, sheet figure 4 A): -92.8433; AM/CELL NORM ([2]; Time 48, sheet figure 4 A): -15.4132; AM/CELL NORM ([2]; Time 72, sheet figure 4 A): 37.7082; MCC50 ([2]; figure 5): 50 µM; ME 24h (maximum effect at 24 hours, intracellular amastigotes) [2]: -92.8433%
O=C(CSc1ccc(-c2ccccn2)nn1)Nc1ccc(Cl)cc1 [TCMDC-143552]	5.4	5.5	-18.5463	-23.0005	85.8726	5.6 µM	7.37	48.0 h	72	48	72	48	5.556	-18.6%	-23.0%	85.9%	16.7 µM	72.0 h	48.0 h	16.6667	AM/CELL NORM ([2]; Time 24, sheet figure 4 A): -202.586; AM/CELL NORM ([2]; Time 48, sheet figure 4 A): -606.539; AM/CELL NORM ([2]; Time 72, sheet figure 4 A): -482.613; ME 24h (maximum effect at 24 hours, intracellular amastigotes) [2]: -18.5463%
CC[C@@H]([C@H](C)O)n1ncn(-c2ccc(N3CCN(c4ccc(OC[C@@H]5CO[C@@](Cn6cncn6)(c6ccc(F)cc6F)C5)cc4)CC3)cc2)c1=O [Posaconazole, reference compound]	–	–	-76.4226	-0.321	50.6685	0.003 µM	–	24.0 h	65.8667	24	61.3333	46.4	0.002879	-76.4%	-0.32%	50.7%	6.2 µM	54.2 h	29.3 h	23.7078	activity in trypomastigotes assay (in words) [1]: inactive; IC50 [1, 3]: > 50.1 µM; IC50 [1, 4]: > 50.1 µM; IC50 ([1]; 72 hours, plotted values, censored values given without sign, read-out: 72 pIC50 (trypomastigotes, raw data of Fig 1D) (converted)): > 50.1 µM; IC50 ([1]; trypomastigote assay, 48 h, figure 1A, read-out: 48 pIC50 (converted)): > 50.1 µM; IC50 ([1]; trypomastigote assay, 72 h, figure 1A, read-out: 72 pIC50 (converted)): > 50.1 µM; 72 pIC50 [1, 5]: < 4.3; ME (maximum effect) in RoK assay (in words) [2]: lower ME; tlag (in words) [2]: longer tlag_MCC50 and tlag_Cmax values; MCCE (Minimal Compound Concentration with Effect) ([2]; Fig 2C, average): 0.003 µM; MCC50 (Minimal Cidal Concentration 50%) ([2]; Fig 2C, average, listed as POS): 6.2 µM; t50pct_Cmax (t50%_Cmax) ([2]; Fig 2C, average, time to reduce 50% of initial parasite load at maximum concentration): 65.9 h; AM/CELL NORM ([2]; Time 4, figure 4 A): 5.09; AM/CELL NORM ([2]; Time 24, figure 4 A): -32.2625; AM/CELL NORM ([2]; Time 48, figure 4 A): -0.614; AM/CELL NORM ([2]; Time 72, figure 4 A): 48.3608; Emax ([2]; Trypanosoma cruzi, H9c2): -63%; t50%_Cmax [2]: 65.9 h
O=C(Cn1ccnc1[N+](=O)[O-])NCc1ccccc1 [Benznidazole, benznidazole, reference compound]	–	–	49.8205	84.8832	90.745	3.9 µM	–	5.5 h	34	4	46	7.333	4.172	49.8%	84.9%	90.7%	31.2 µM	46.2 h	8.6 h	33.802	activity in trypomastigotes assay (in words) [1]: active; IC50 [1, 3]: 6.31 µM; IC50 [1, 4]: 5.01 µM; pIC50 versus trypomastigotes ([1]; invariable at the two incubation times tested): 5.3; ME (maximum effect) in RoK assay (in words) [2]: higher ME values close to 100%; tlag (in words) [2]: short t-lag values; MCCE (Minimal Compound Concentration with Effect) ([2]; Fig 2C, average, listed as BNZ): 3.9 µM; MCC50 (Minimal Cidal Concentration 50%) ([2]; Fig 2C, average, listed as BNZ): 31.2 µM; t50pct_MCC50 (t50%_MCC50) ([2]; Fig 2C, average, time to reduce 50% of initial parasite load at MCC50, listed as BNZ): 46.2 h; AM/CELL NORM ([2]; Time 4, figure 4 A): 14.6109; AM/CELL NORM ([2]; Time 24, figure 4 A): 40.5448; AM/CELL NORM ([2]; Time 48, figure 4 A): 53.9104; AM/CELL NORM ([2]; Time 72, figure 4 A): 66.8038; Emax at 50 µM ([2]; Trypanosoma cruzi, H9c2, BNZ at 50 μM, 48 hours, read-out: maximum effect): 100%; Emax ([2]; Trypanosoma cruzi, H9c2): 49.2%; t50%_Cmax [2]: 35.0 h
O=C(O)C(F)(F)F.O=c1oc2ccccc2n1C1CCN(Cc2ccccc2-c2cccnc2)CC1 [TCMDC-143389]	< 4.3	< 4.3	-205.37	-40.6003	54.0373	0.2 µM	-7.014	24.0 h	72	24	72	24	0.2058	-205.4%	-40.6%	54.0%	5.6 µM	72.0 h	24.0 h	5.556	72 pIC50 (trypomastigotes, raw data of Fig 1D) ([1]; 72 hours, plotted values, censored values given without sign): < 4.3; 48 pIC50 ([1]; trypomastigote assay, 48 h, figure 1A): < 4.3; 72 pIC50 ([1]; trypomastigote assay, 72 h, figure 1A): < 4.3; 72 pIC50 [1, 5]: < 4.3; AM/CELL NORM ([2]; Time 24, sheet figure 4 A): -205.37; AM/CELL NORM ([2]; Time 48, sheet figure 4 A): -40.6003; AM/CELL NORM ([2]; Time 72, sheet figure 4 A): 17.0901; ME 24h (maximum effect at 24 hours, intracellular amastigotes) [2]: -205.37%
